Experimental data published in article PMC6858373 (Scientific Reports, 2019).
Read-outs that look alike come from different tables or passages of the source.

Tests used:
[1] = target: full-length P. pyralis luciferase (Photinus pyralis, UniProt P08659, K549A/L550V/N119G/N50D/S548I); assay type: cell-based
[2] = target: T1, FGF14:Nav1.6 C-tail complex (Homo sapiens, UniProt Q92915+Q9UQD0); assay: Split-luciferase complementation assay (LCA) in Clone V double stable HEK293 cells; assay type: cell-based
T1 construct: polymerase chain reaction (PCR) amplification of the FGF14 open reading frame (nt 1–855); C-terminal fragment of Nav1.6 (amino acids 1763–1976) fused with CD4ΔC-tail (amino acids 1–395); expressed in transfected cells

Clone V cells = details: for Toxicity Assay % Fluor / Toxicity Assay Z-score: human
[3] = CC_NCI screening, LCA luminescence, biological replicate Set 1, normalized to on-plate 0.3% DMSO controls (n=16 per plate)
[4] = CC_NCI screening, LCA luminescence, biological replicate Set 2, normalized to on-plate 0.3% DMSO controls (n=16 per plate)
[5] = CC_NCI screening, LCA, biological replicate Set 1, normalized to on-plate 0.3% DMSO controls
[6] = CC_NCI screening, LCA, biological replicate Set 2, normalized to on-plate 0.3% DMSO controls
[7] = CC_NCI screening, average of Set 1 and Set 2, normalized to 0.3% DMSO controls
[8] = CC_NCI screening, full-length luciferase counter-screen luminescence, normalized to on-plate 0.3% DMSO controls
[9] = CC_NCI screening, full-length luciferase counter-screen, normalized to on-plate 0.3% DMSO controls
[10] = CC_NCI screening, normalized to on-plate 0.3% DMSO controls
[11] = CC_NCI screening, biological replicate Set 1, normalized to on-plate 0.3% DMSO controls
[12] = CC_NCI screening, biological replicate Set 1, normalized to on-plate 0.3% DMSO controls (n=16 per plate)
[13] = CC_NCI screening, biological replicate Set 2, normalized to on-plate 0.3% DMSO controls
[14] = CC_NCI screening, biological replicate Set 2, normalized to on-plate 0.3% DMSO controls (n=16 per plate)
[15] = average of Set 1 and Set 2, normalized to 0.3% DMSO controls

T1 sequence (Q92915 1-252 isoform Q92915-2): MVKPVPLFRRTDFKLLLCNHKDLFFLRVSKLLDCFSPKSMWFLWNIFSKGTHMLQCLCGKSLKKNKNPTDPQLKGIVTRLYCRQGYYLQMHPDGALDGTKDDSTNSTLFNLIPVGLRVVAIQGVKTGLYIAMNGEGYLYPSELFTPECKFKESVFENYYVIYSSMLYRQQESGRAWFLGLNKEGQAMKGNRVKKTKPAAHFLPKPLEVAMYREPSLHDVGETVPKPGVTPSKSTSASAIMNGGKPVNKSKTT
T1 sequence (Q9UQD0 1763-1976 limits assumed): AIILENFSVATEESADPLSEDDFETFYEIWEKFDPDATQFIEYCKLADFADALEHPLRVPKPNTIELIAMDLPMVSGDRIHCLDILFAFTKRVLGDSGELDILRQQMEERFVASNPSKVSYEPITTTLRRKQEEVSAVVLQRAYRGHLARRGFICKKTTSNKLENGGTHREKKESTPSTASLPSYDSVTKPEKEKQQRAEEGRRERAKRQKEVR
full-length P. pyralis luciferase, sequence (P08659 whole entry N50D/N119G/S548I/K549A/L550V, looked up): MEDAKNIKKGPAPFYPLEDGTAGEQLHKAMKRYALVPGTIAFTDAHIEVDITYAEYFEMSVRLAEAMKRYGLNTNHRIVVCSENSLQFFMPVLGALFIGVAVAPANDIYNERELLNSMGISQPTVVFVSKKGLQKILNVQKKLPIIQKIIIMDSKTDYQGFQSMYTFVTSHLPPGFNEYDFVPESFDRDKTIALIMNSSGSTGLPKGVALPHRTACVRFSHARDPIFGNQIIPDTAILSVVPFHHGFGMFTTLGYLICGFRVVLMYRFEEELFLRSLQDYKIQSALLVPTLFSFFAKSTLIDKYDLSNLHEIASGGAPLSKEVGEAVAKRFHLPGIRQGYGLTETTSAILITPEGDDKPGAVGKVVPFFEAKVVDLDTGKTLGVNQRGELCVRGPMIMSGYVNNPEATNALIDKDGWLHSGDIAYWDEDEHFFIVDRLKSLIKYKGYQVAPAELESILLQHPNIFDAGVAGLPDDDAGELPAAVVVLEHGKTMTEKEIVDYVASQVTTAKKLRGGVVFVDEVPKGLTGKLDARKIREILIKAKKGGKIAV

SMILES	Luciferase Assay % Lum [1]	Luciferase Assay Z-score [1]	Split Luciferase Assay % Lum Set 1 [2, 3]	Split Luciferase Assay %Lum Set 2 [2, 4]	Split Luciferase Assay Z-score Set 1 [2, 5]	Split Luciferase Assay Z-score Set 2 [2, 6]	Split Luciferase Assay %Lum Avg [2, 7]	Toxicity Assay % Fluor (Clone V cells; 16 h, 30 µM)	Toxicity Assay Z-score (Clone V cells; 16 h, 30 µM)	Luciferase Assay % Lum [1, 8]	Luciferase Assay Z-score [1, 9]	Luciferase Assay % Lum (full-length luciferase counter-screen) [1, 10]	Luciferase Assay Z-score (full-length luciferase counter-screen) [1, 10]	Split Luciferase Assay Z-score Set 2 [2, 13]	Split Luciferase Assay %Lum Set 2 [2, 14]	Split Luciferase Assay %Lum Avg [2, 15]	Toxicity Assay % Fluor (CTB cell viability fluorescence) (Clone V cells)	Toxicity Assay Z-score (CTB cell viability) (Clone V cells)	also measured
c1cc(CN2CCCNCCNCCCNCC2)ccc1CN1CCCNCCNCCCNCC1 [Plerixafor]	97.43%	-0.33	112.30%	111.31%	0.99	0.92	111.81%	92.88%	-1.00	–	–	–	–	–	–	–	–	–	–
O=C(c1ccc(OCCN2CCCCC2)cc1)c1c(-c2ccc(O)cc2)sc2cc(O)ccc12 [Raloxifene]	–	–	56.86%	52.02%	-3.49	-3.90	54.44%	90.90%	-1.27	91.29%	-1.12	–	–	–	–	–	–	–	–
CC[C@H](CO)Nc1nc(NCc2ccccc2)c2ncn(C(C)C)c2n1 [Roscovitine]	97.39%	-0.33	–	–	–	–	–	–	–	–	–	–	–	–	–	–	–	–	Split Luciferase Assay % Lum Set 1 [2]: 32.94%; Split Luciferase Assay %Lum Avg [2]: 39.88%; Split Luciferase Assay %Lum Set 2 [2]: 46.81%; Split Luciferase Assay Z-score Set 1 [2]: -5.42; Split Luciferase Assay Z-score Set 2 [2]: -4.33; Toxicity Assay % Fluor (Clone V cells): 99.28%; Toxicity Assay Z-score (Clone V cells): -0.10
C[S+]([O-])c1ccc(-c2nc(-c3ccncc3)c(-c3ccc(F)cc3)[nH]2)cc1 (stereo not drawn) [SB 203580, reference compound]	80.35%	-2.52	–	–	–	–	–	95.56%	-0.62	–	–	–	–	–	–	–	–	–	EMax (% Luminescence) [2]: 152.42 % Luminescence; Split Luciferase Assay %Lum Avg [2]: 152.42%; Split Luciferase Assay %Lum Set 2 [2]: 166.45%; Split Luciferase Assay Z-score Set 1 [2]: 3.10; Split Luciferase Assay Z-score Set 2 [2]: 5.41; Z-score (LCA primary screening) [2]: 4.25; dose-dependent behavior in LCA [2]: mild inhibition at lower concentrations (0.5–2 µM) and stimulation at higher concentrations
Cn1cc(C2=C(c3ccc(Cl)cc3Cl)C(=O)NC2=O)c2ccccc21 [SB 216763]	–	–	88.38%	106.11%	-0.94	0.50	97.25%	101.41%	0.20	100.07%	0.01	–	–	–	–	–	–	–	–
O=C1NC(=O)c2c1c1c3ccccc3n3c1c1c2c2ccccc2n1C1CCC3O1 [SB 218078]	–	–	–	–	–	–	–	–	–	–	–	92.40%	-0.97	-1.79	78.02%	79.40%	109.07%	1.27	Split Luciferase Assay Z-score Set 1 [2, 11]: -1.55; Split Luciferase Assay % Lum Set 1 [2, 12]: 80.77%
NC(=O)c1ccc(-c2nc(-c3ccc4c(c3)OCO4)c(-c3ccccn3)[nH]2)cc1 [SB 431542]	–	–	112.30%	114.43%	0.99	1.17	113.37%	90.72%	-1.30	93.14%	-0.88	–	–	–	–	–	–	–	–
NC(=O)c1ccc2[nH]ccc2c1 [SD 169]	–	–	–	–	–	–	–	–	–	–	–	109.31%	1.19	1.34	116.51%	121.47%	104.03%	0.56	Split Luciferase Assay Z-score Set 1 [2, 11]: 2.14; Split Luciferase Assay % Lum Set 1 [2, 12]: 126.43%
Fc1ccc(Cl)cc1-c1nc(Nc2ccncc2)c2nccnc2n1 [SD 208]	–	–	–	–	–	–	–	–	–	–	–	88.62%	-1.46	-3.73	54.10%	95.16%	107.60%	1.06	–
